Results as given in article doi:10.1101/577908v1, “Host metabolic reprogramming of Pseudomonas aeruginosa by phage-based quorum sensing modulation” (biorxiv, 2019).

Tests used:
PA1217 = target: T1, PA1217 (Pseudomonas aeruginosa, UniProt Q9I4C1); test: DTNB end-point assay of CoA release; 1H-NMR; type: biochemical; conditions: 1 mM acetyl-CoA, 2 mM 3-methyl-2-oxobutanoic acid, MgCl2, pH 7.5, 37 °C
T1 construct: full-length, GST-tagged (pGEX-6P-1), expressed in E. coli BL21(DE3), GSTrap purified; tag removal not mentioned
T1 sequence (Q9I4C1 1-455): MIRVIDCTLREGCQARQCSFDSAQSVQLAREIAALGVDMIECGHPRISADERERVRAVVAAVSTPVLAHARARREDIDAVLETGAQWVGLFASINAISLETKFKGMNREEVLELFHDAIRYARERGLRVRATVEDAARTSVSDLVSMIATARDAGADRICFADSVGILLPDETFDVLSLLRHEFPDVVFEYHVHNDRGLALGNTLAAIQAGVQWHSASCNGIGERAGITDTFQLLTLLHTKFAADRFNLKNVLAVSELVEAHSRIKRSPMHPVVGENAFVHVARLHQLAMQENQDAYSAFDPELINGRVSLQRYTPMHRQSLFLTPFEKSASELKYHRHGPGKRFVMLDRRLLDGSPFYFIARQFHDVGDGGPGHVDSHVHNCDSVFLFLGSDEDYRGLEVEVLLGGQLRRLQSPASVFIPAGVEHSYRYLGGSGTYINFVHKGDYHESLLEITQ

Qst = target: T2, Qst (Pseudomonas phage LUZ19, UniProt A9J759); test: DTNB end-point assay of CoA release; 1H-NMR; type: biochemical; conditions: 1 mM acetyl-CoA, 2 mM 3-methyl-2-oxobutanoic acid, MgCl2, pH 7.5, 37 °C
T2 construct: gene gp4; His-tagged (pEXP5-CT/TOPO), expressed in E. coli BL21(DE3), HisTrap purified; predicted 13 kDa
T2 sequence (A9J759 1-122): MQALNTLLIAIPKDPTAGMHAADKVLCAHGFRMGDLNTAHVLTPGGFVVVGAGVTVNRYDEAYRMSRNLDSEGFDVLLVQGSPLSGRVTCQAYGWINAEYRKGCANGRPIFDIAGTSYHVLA

CC(=O)SCCNC(=O)CCNC(=O)[C@H](O)C(C)(C)COP(=O)(O)OP(=O)(O)OC[C@H]1O[C@@H](n2cnc3c(N)ncnc32)[C@H](O)[C@@H]1OP(=O)(O)O [acetyl-CoA]
DTNB end-point assay of CoA release; 1H-NMR (PA1217): products were only formed by LeuA, while PA1217 merely consumed acetyl-CoA | DTNB end-point assay of CoA release; 1H-NMR (Qst): Qst was also able to consume acetyl-CoA
